# According to ChEMBL document CHEMBL1201862, “PubChem BioAssay data set” (2004):
#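 Grown in 96-well plates, cells were treated for 48 hours with each compound at five concentrations. Insufficient inhibition: endpoint recorded as highest concentration tested. The concentration for 50% growth inhibition is given as GI50.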 Active and inactive are the calls of the source. No stated cut-off is given here; in the data, active = GI50 up to about 1.1 µM and inactive = higher.
# Legend:
# Experiment in all cases: DTP human tumour cell line panel, 48 h
# SK-MEL-2 = test system: SK-MEL-2
# HOP-92 = test system: HOP-92
# DU-145 = test system: DU-145
# NCI-H23 = test system: NCI-H23
# RPMI-8226 = test system: RPMI-8226
# COLO 205 = test system: COLO 205
# UACC-62 = test system: UACC-62
# TK-10 = test system: TK-10
# NCI-H460 = test system: NCI-H460
# PC-3 = test system: PC-3
# SR = test system: SR
# MDA-N = test system: MDA-N
# SK-OV-3 = test system: SK-OV-3
# LOX IMVI = test system: LOX IMVI
# UACC-257 = test system: UACC-257
# SF-539 = test system: SF-539
# SF-268 = test system: SF-268
# OVCAR-3 = test system: OVCAR-3
# SN12C = test system: SN12C
# MDA-MB-231 = test system: MDA-MB-231
Structure (SMILES),GI50 (SK-MEL-2),GI50 (HOP-92),GI50 (DU-145),GI50 (NCI-H23),GI50 (RPMI-8226),GI50 (COLO 205),GI50 (UACC-62),GI50 (TK-10),GI50 (NCI-H460),GI50 (PC-3),GI50 (SR),GI50 (MDA-N),GI50 (SK-OV-3),GI50 (LOX IMVI),GI50 (UACC-257),GI50 (SF-539),GI50 (SF-268),GI50 (OVCAR-3),GI50 (SN12C),GI50 (MDA-MB-231)
O=C1c2ccccc2N1C(=O)c1ccccc1[N+](=O)[O-],90.8 µM (inactive),> 100 µM (inactive),> 100 µM (inactive),> 100 µM (inactive),64.4 µM (inactive),61.1 µM (inactive),> 100 µM (inactive),> 100 µM (inactive),> 100 µM (inactive),> 100 µM (inactive),> 100 µM (inactive),74.6 µM (inactive),> 100 µM (inactive),32.1 µM (inactive),> 100 µM (inactive),32.2 µM (inactive),39.9 µM (inactive),18.6 µM (inactive),–,–
CCOC(=O)C1CCC(=O)N1C(=O)c1ccc(Cl)cc1 (centres undefined),–,> 100 µM (inactive),> 100 µM (inactive),> 100 µM (inactive),> 100 µM (inactive),–,22.3 µM (inactive),–,> 100 µM (inactive),–,> 100 µM (inactive),> 100 µM (inactive),–,> 100 µM (inactive),> 100 µM (inactive),> 100 µM (inactive),> 100 µM (inactive),> 100 µM (inactive),> 100 µM (inactive),> 100 µM (inactive)
Cc1ccc(S(=O)(=O)NC(=O)C2=C3SCCN3C(=O)N(S(=O)(=O)c3ccc(C)cc3)C2c2ccccc2)cc1 (centres undefined),46.8 µM (inactive),28.1 µM (inactive),> 100 µM (inactive),40.6 µM (inactive),26.7 µM (inactive),19.9 µM (inactive),37.3 µM (inactive),> 100 µM (inactive),71.1 µM (inactive),33.9 µM (inactive),31.4 µM (inactive),–,24.1 µM (inactive),39.4 µM (inactive),78.5 µM (inactive),25.6 µM (inactive),32.3 µM (inactive),20 µM (inactive),49.9 µM (inactive),36.6 µM (inactive)
COc1ccc2c(c1)c1c(n2CCN(C)C)-c2cccc(OC)c2CC1,15.6 µM (inactive),17.7 µM (inactive),17.7 µM (inactive),18.8 µM (inactive),2.05 µM (inactive),6.62 µM (inactive),15.2 µM (inactive),19.2 µM (inactive),14.6 µM (inactive),11.6 µM (inactive),–,11 µM (inactive),18.2 µM (inactive),13.4 µM (inactive),17.3 µM (inactive),–,17.9 µM (inactive),16.1 µM (inactive),13.7 µM (inactive),13.7 µM (inactive)
NNc1nnc(CCCCCCCCc2nnc(NN)n2N)n1N,84.5 µM (inactive),28 µM (inactive),> 100 µM (inactive),97.7 µM (inactive),–,> 100 µM (inactive),–,> 100 µM (inactive),> 100 µM (inactive),> 100 µM (inactive),–,> 100 µM (inactive),> 100 µM (inactive),21.4 µM (inactive),> 100 µM (inactive),> 100 µM (inactive),43.3 µM (inactive),–,> 100 µM (inactive),41.5 µM (inactive)
Cc1c2c(c(C)n1-c1ccccc1)C(=O)N(CCN1CCN(c3cccc(C(F)(F)F)c3)CC1)C2=O,0.719 µM (active),> 100 µM (inactive),> 100 µM (inactive),7.94 µM (inactive),21.5 µM (inactive),17.1 µM (inactive),> 100 µM (inactive),> 100 µM (inactive),45.3 µM (inactive),18.8 µM (inactive),–,71.1 µM (inactive),> 100 µM (inactive),37.1 µM (inactive),7.67 µM (inactive),87.1 µM (inactive),> 100 µM (inactive),> 100 µM (inactive),45 µM (inactive),> 100 µM (inactive)
CNc1ncnc2c1nc(NC1CCCC1)n2C1OC(CO)C(O)C1O (centres undefined),> 100 µM (inactive),> 100 µM (inactive),> 100 µM (inactive),> 100 µM (inactive),–,> 100 µM (inactive),> 100 µM (inactive),> 100 µM (inactive),> 100 µM (inactive),> 100 µM (inactive),–,> 100 µM (inactive),> 100 µM (inactive),–,–,> 100 µM (inactive),> 100 µM (inactive),> 100 µM (inactive),> 100 µM (inactive),> 100 µM (inactive)
Nc1ccc2c(SCCSc3c4ccccc4nc4cc(N)ccc34)c3ccccc3nc2c1,> 100 µM (inactive),> 100 µM (inactive),> 100 µM (inactive),94.2 µM (inactive),> 100 µM (inactive),> 100 µM (inactive),> 100 µM (inactive),> 100 µM (inactive),> 100 µM (inactive),> 100 µM (inactive),23 µM (inactive),–,> 100 µM (inactive),> 100 µM (inactive),> 100 µM (inactive),> 100 µM (inactive),> 100 µM (inactive),> 100 µM (inactive),> 100 µM (inactive),> 100 µM (inactive)
CC(C)(C)c1cc2c(c(C(C)(C)C)c1O)CC(=O)O2,21.5 µM (inactive),< 0.01 µM (active),47.5 µM (inactive),19.8 µM (inactive),23.6 µM (inactive),22.2 µM (inactive),23.2 µM (inactive),30.4 µM (inactive),37.7 µM (inactive),27.2 µM (inactive),–,34.9 µM (inactive),48.8 µM (inactive),38.5 µM (inactive),24.6 µM (inactive),23.2 µM (inactive),44.4 µM (inactive),16.6 µM (inactive),34.8 µM (inactive),24.5 µM (inactive)
CCCCCCOc1ccc(NC2=C(Cl)C(=O)c3cccnc3C2=O)cc1,1.59 µM (inactive),2.02 µM (inactive),1.55 µM (inactive),1.74 µM (inactive),0.684 µM (active),–,1.07 µM (active),3.3 µM (inactive),1.79 µM (inactive),2.41 µM (inactive),–,1.59 µM (inactive),4.35 µM (inactive),1.36 µM (inactive),2.25 µM (inactive),2.09 µM (inactive),2.11 µM (inactive),1.35 µM (inactive),1.68 µM (inactive),–
N#Cc1cc(Sc2ccc(N)c(C#N)c2)ccc1N,30.3 µM (inactive),21.7 µM (inactive),24.9 µM (inactive),–,12.8 µM (inactive),8.59 µM (inactive),14.8 µM (inactive),65.6 µM (inactive),15.5 µM (inactive),22.8 µM (inactive),–,4.03 µM (inactive),23.1 µM (inactive),15.8 µM (inactive),26.9 µM (inactive),11.1 µM (inactive),18 µM (inactive),34.7 µM (inactive),48.4 µM (inactive),40.7 µM (inactive)
